Experimental data reported in patent US9855320B2, “Angiogenin for treatment of glaucoma” (CHUNG-ANG UNIVERSITY INDUSTRY-ACADEMIC COOPERATION …, priority 2011, dated 2018).

Columns and labels:
glaucoma white rats = experiment: Intraocular pressure change due to instillation in glaucoma white rats (day-time and night-time); assay type: in vivo, rat; settings: day-time test and night-time test
Protocol: Male white rats were used to prepare an episcleral venous ablation glaucoma model. The rat was anesthetized and a limbus periphery was divided into four portions, each of which was then subjected to 2 mm dissection at an interval of 90 degrees, and then, two radial conjunctival excisions were performed on upper dissection periphery. […] Episcleral vein is distinguishable because it is located […] than extra ocular muscle, has relatively low fluidity and a relatively large diameter, contains darker blood in vessel, and is connected to peripheral venous plexus. After surgical isolation of vein, the vein was lifted up by using 3 mm-width wooden spatula to be spaced apart from the peripheral tissue, and then, was subjected to electric ablation while being careful for the peripheral tissue not to have any thermal injury or any mechanical injury due to the contact. After the operation, a chloramphenical ophthalmic agent was administered thereto. Intraocular pressure was consecutively measured three or more times by using Tonopen (Solan, Fla., USA), and only reliable intraocular pressure values within 5% or less were recorded. Only used were rats that had higher intraocular pressure than that before the operation by 5 mmHg or more when measured on the first day, the third day, one week and two weeks before and after operation.
Also, steroid-induced glaucoma model was prepared as follows: 1% prednisolone was instilled twice a day in an amount of 4 μl for 30 days, and only rats that had higher intraocular pressure by 5 mmHg or more before operation were used.
(§1) White rats were grouped as a physiological saline solution instillation group, an angiogenin (recombinant human angiogenin, R&D systems, USA) 50 μg/ml instillation group, an angiogenin fragment (angiogenin 108-122, SEQ ID NO: 1, BACHEM, USA) instillation group, and a latanoprost 50 μg/ml instillation group, and each group consisted of 6 rats, that is, 12 eyes. Instillation test was repeatedly performed on normal rats and glaucoma model rats. Ophthalmic agent was administered at 8 AM and 8 PM in an amount of 4 μl to compare day-time effects and night-time effects, and 1, 3, 6, 9, 12, and 24 hours after the instillation, intraocular pressure was measured.

[1] = system: nitric oxide (NO) concentration in aqueous humor; experiment: NO concentration in aqueous humor after instillation (Griess assay); assay type: in vivo, rat; settings: 50 μg/ml, rank among instillation groups
Protocol: Normal rat models were divided into 4 groups, each group consisting of 6 rats, that is, 12 eyes, and at 8 AM and 8 PM, each group was instilled with angiogenin 50 μg/ml, angiogenin fragment 50 μg/ml, and latanoprost 50 μg/ml, and 1, 3, and 6 hours after instillation, 15 to 20 μl of aqueous humor was extracted from two rats, that is, 4 eyes for each group. For the extraction of aqueous humor, first, rats were anesthetized, and then, corneal dissection was performed in a direction from at 9 o'clock outside each eye toward microkeratome, and then, a capillary tube was brought into contact through a dissection wound to absorb aqueous humor, which was then moved to an eppendroff tube and frozen-preserved at a temperature of −70 degrees. Thereafter, nitric oxide (NO) concentration in aqueous humor was measured by Griess assay (nitric oxide colorimetric assay kit, Biovision, USA). The aqueous humor was diluted 10 times and then mixed with the same amount of griess solution and reacted together for 10 minutes. The reaction product was moved onto a well plate and then, absorbance of nitrate, which is a NO formation reactant, was measured by using spectrophotometer at a wavelength of 540 nm and compared with a reference value to quantify the nitrate.

normal white rat = experiment: Intraocular pressure change due to instillation in normal white rats (day-time and night-time); assay type: in vivo
Protocol: as §1

angiogenin = experiment: Angiogenin concentration change in human tear after Latanoprost instillation (ELISA array); assay type: in vivo
Protocol: Angiogenin concentration change in tears due to long-, short-term instillation of […] Latanoprost (Xalatan; Pfizer Inc., New York, N.Y., USA) was assayed by using ELISA kit (Custom Cytokine Human Antibody Array, RayBiotech). Short-term tear component change assay was performed as follows: 12 people, that is, 24 eyes were instilled with […] Latanoprost and then, angiogenin concentration in tear was qualitatively assayed before instillation and 6 hours after instillation. Long-term tear component change assay was performed as follows: 10 people, that is, 20 eyes, who were newly diagnosed with glaucoma were instilled with […] Latanoprost instillation for two months once a day, and then, angiogenin concentration in tear was analyzed before and after instillation. […] After washing, the result was reacted in a detection buffer solution provided by the manufacturer for 2 minutes, and then, the membrane was exposed to an X-ray film for 40 seconds, and an image thereof was obtained by using Quantity one software(Bio-Rad Lab., Hercules, Calif., USA), and chemiluminescent assay was performed thereon for qualitativeness.

| Compound | course of intraocular pressure reduction effects after the first hour (in words) (glaucoma white rats; later than one hour after instillation) | intraocular pressure reduction effects (in words) (glaucoma white rats; one hour after instillation) | NO concentration increase in aqueous humor ([1]; 1 hour after the initial instillation, day-time and night-time test) | time after instillation up to which significant intraocular pressure reduction was maintained (normal white rat; day-time instillation) | average intraocular pressure reduction (normal white rat; day-time instillation, one hour after instillation) [mmHg] | time after instillation up to which significant intraocular pressure reduction was maintained (normal white rat; night-time instillation) | intraocular pressure reduction (normal white rat; night-time instillation, 1 hour after the instillation) [mmHg] | expression of angiogenin in tear (angiogenin; human, short-term, 6 hours after instillation of 0.0005% Latanoprost, before instillation 42.2±9.1%) [%] | long-term angiogenin concentration in tear (angiogenin; newly diagnosed glaucoma patients, after two months of instillation once a day, 0.0005% Latanoprost, before instillation 60.5±10.8%) [%] | NO concentration increase in aqueous humor ([1]; 3 hours after instillation) | intraocular pressure reduction (normal white rat; day-time instillation, 50 μg/ml, 3 hours after the instillation) [mmHg] |
| --- | --- | --- | --- | --- | --- | --- | --- | --- | --- | --- | --- |
| angiogenin fragment: C-terminal fragment of angiogenin, angiogenin 108-122, SEQ ID NO: 1 (BACHEM) (ENGLPVHLDQSIFRR; listed as Homo sapiens) | rapidly diminished at the highest speed from among all of the groups | excellent intraocular pressure reduction effects | ranked the second | up to 6 hours | −2.9±0.4 | up to 12 hours | −3.4±0.6 | – | – | – | – |
| CC(C)OC(=O)CCC/C=C\C[C@@H]1[C@@H](CC[C@@H](O)CCc2ccccc2)[C@H](O)C[C@@H]1O [latanoprost, reference compound] | – | – | – | up to 12 hours | – | – | – | 62.5±10.2 | 81.2±11.5 | greatest NO concentration increase | −2.8±0.4 |
